According to PMC8222254, “Self-assembly of an anion receptor with metal-dependent kinase inhibition and potent in vitro anti-cancer properties” (Nature Communications, 2021):

Experiments:
HCT116 p53+/+ = assay: Quantification of cellular ATP levels (CellTiterGlo); assay type: cell-based, human; conditions: for % ATP Activity (Average): HCT116 p53+/+ cells, average of runs, relative to 0 µM = 100
Procedure: (§1) ARPE-19 and HCT116 p53^+/+ cells were seeded in 96-well opaque plates at a density of 7500 cells/well. 24 h after seeding, cells were treated for 20 h with a range of concentrations of [[…]]^6+, [L2Zn3]^6+, [[…]]^6+, or vehicle control (2-fold serial dilution from 100-3.125 μM) before determining total cellular ATP content by quantification of luminescence (CellTiterGlo® assay, Promega). ATP levels were normalised relative to levels in vehicle control-treated cells.

ARPE-19 = assay: as above; assay type: cell-based, human; conditions: for % ATP Activity (Average): ARPE-19 cells, average of runs, relative to 0 µM = 100
Procedure: as §1

For [Mn+2].[Mn+2].[Mn+2].c1ccc(-c2csc(NCCN(CCNc3nc(-c4ccccn4)cs3)CCNc3nc(-c4ccccn4)cs3)n2)nc1.c1ccc(-c2csc(NCCN(CCNc3nc(-c4ccccn4)cs3)CCNc3nc(-c4ccccn4)cs3)n2)nc1 [[L2Mn3]6+], the “% ATP Activity (Average)” value (HCT116 p53+/+; 3.125 µM complex) was 52.15%, the “% ATP Activity (Average)” value (HCT116 p53+/+; 6.25 µM complex) was 40.82% and the “% ATP Activity (Average)” value (HCT116 p53+/+; 12.5 µM complex) was 38.17%. For the same molecule, the “% ATP Activity (Average)” value (HCT116 p53+/+; 25 µM complex) was 35.09%, the “% ATP Activity (Average)” value (HCT116 p53+/+; 50 µM complex) was 31.21% and the “% ATP Activity (Average)” value (HCT116 p53+/+; 100 µM complex) was 28.58%. For the same molecule, the “ATP levels relative to vehicle control” value (HCT116 p53+/+; HCT116 p53+/+, 6.25μM, 20h) was < 50%, the “ATP levels relative to vehicle control” value (ARPE-19; ARPE19, 100μM, 20h) was ~ 40% and the “% ATP Activity (Average)” value (ARPE-19; 3.125 µM complex) was 82.98%. For the same molecule, the “% ATP Activity (Average)” value (ARPE-19; 6.25 µM complex) was 75.81%, the “% ATP Activity (Average)” value (ARPE-19; 12.5 µM complex) was 71.57% and the “% ATP Activity (Average)” value (ARPE-19; 25 µM complex) was 63.68%. For the same molecule, the “% ATP Activity (Average)” value (ARPE-19; 50 µM complex) was 53.48% and the “% ATP Activity (Average)” value (ARPE-19; 100 µM complex) was 40.46%.
